According to patent US20050222418A1, “Novel tyloindicines and related processes, pharmaceutical compositions and methods” (priority 2002, published 2005):

Legend:
HepG2 cells = experiment: Cell cycle analysis (flow cytometry), HepG2; assay type: cell-based, human; settings: 24 h treatment
Description: (§1) FIG. 1 illustrates the following referred to in the Examples herein: • “A. Chemical structure” provides the structural formulae for (+)-(S)-tylophorine (also referred to herein as compound “III-2” and DCB-3500); DCB-3501; “compound II-3a of FIG. 15”; and, in FIGS. 18-22, as […]); DCB-3502 (also referred to herein as “compound II-2); and DCB-3503 (also referred to herein as “NSC 716802”; “compound II-3b” of FIG. 15; and “ZH-152”). • “Table 1, B and C” provides EC50 and LD50 values for use of DCB-3500, DCB-3501, DCB-3502, and DCB-3503 against KB and HepG2 cancer cell lines resistant to various anticancer drugs, including VP-16 (etoposide), VCR (vincristine), CPT (camptothecin), and DOX (doxorubicin). • “Table 2 A, and B, and Table 3” illustrate that KB and HepG2 cancer cell lines are inhibited by the compounds of the instant invention. […] At the end of treatment, cells were washed, resuspended in PBS and stained with propidium iodide containing Rnase A for flow cytometric analysis. Data were analyzed using Modfit software.
(§2) KB and HepG2 cells were treated for 24 h with increasing concentrations of DCB-3500 and DCB-3503. At the end of treatment, cells were trypsinized, and the resulting cell suspensions were centrifuged at 1000 rpm for 5 min. The cells were fixed overnight in 70% ethanol at 4° C., centrifuged at 1000 rpm for 5 min, the pellets were washed twice with ice-cold PBS. Cell pellets were then resuspended in 0.5 ml PBS containing 50 μg/ml propidium iodide (Sigma-Aldrich) and 100 μg/ml RNase A (Sigma-Aldrich), incubated at 37° C. for 30 min, and then analyzed by FACScan using Cell Quest software (Becton Dickinson Labware, Franklin Lakes, N.J.). Data were analyzed using Modfit LT version 3.1 software (Verity Software House, Topsham, Me.) for cell cycle profile. (FIG. 1, Table 3)

[1] = system: KB cells and its drug resistant cells; experiment: Cross resistance studies in drug resistant cell lines; assay type: cell-based, human; settings: cells resistant to VP-16, VCR, CPT or DOX
Description: as §1
FIG. 18 describes cross resistance studies in KB cell lines using DCB-3503.
(§3) Cells (1×10^4/well) were plated in 24-well plates. After 24 h, cells were treated with drugs for three generation times, then fixed and stained with 0.5% methylene blue in 50% ethanol for 2 h, followed by washing with tap water to remove excess color. Plates were dried and then resuspended in 1% sarkosyl, rotated at room temperature for 3 h. Cell growth was quantitated from the amount of methylene blue absorbed to the cells as measured by a spectrophotometer (Molecular Dynamics) at 595 nm. All experiments were performed in triplicate wells and were repeated at least three times. (see FIG. 1, Table 1B and Table 1C).

[2] = system: NF-κB mediated transcription; experiment: Firefly luciferase reporter assay in HepG2 cells; assay type: cell-based, human; settings: HepG2 cells transfected with pBIIX-luc, TNFa stimulation
Protocol: HepG2 cells were transiently transfected with firefly luciferase reporter vectors pMyc-TA-luc, pE2F-TAO-luc, pAP1-luc, pCRE-luc, or pBIIX-luc (containing two tandemly repeated NF-kB binding sites), respectively, along with internal control vector phRL-luc which is a promoterless renilla luciferase reporter vector. The day after transfection, cells were pretreated with increasing concentrations of 3500 for 1 h, then cells were stimulated with serum for 24 h, or TPA, forskolin or TNFa for 6 h Firefly and renilla uciferase activities were measured using Promega's dual-luciferase assay kit Data presented is firefly luciferase activity.
HepG2 cells were plated at a density of 2×10^4 per well (48-well plate) and transfected with 0.2 μg of firefly luciferase reporter vector pMyc-TA-luc, pE2F-TA-luc, pAP1-luc, pCRE-luc, or pBIIX-luc (containing two tandemly repeated NF-κB binding sites) respectively, along with internal control vector promoter-less renilla luciferase reporter vector phRL (Promega), using FuGENE 6™ transfection reagent according to the manufacturer's instructions. Cell extracts were prepared and luciferase activity was measured using a Dual-luciferase (firefly and renilla luciferase) assay kit according to the manufacturer's instructions.

KB cells = experiment: Cell cycle analysis (flow cytometry), KB; assay type: cell-based, human; settings: 24 h treatment
Description: as §1, §2

[3] = system: human cell-line tumor panel; experiment: NCI human cell-line tumor panel (DTP screen); assay type: cell-based; settings: for antitumor activity in NCI in vitro screen: sixty-panel in vitro screen against human-derived tumors; for LC50 for several melanoma and lung cancer cell lines versus the other cell lines: DTP panel; for ranking by average concentration required for total growth inhibition (TGI): screen of 33,744 compounds, fifty-four cell lines
Description: The ranking system was based on the average concentration required to yield a total growth inhibition (TGI) in the numbers of cell lines of the screen (54 for tylo F and tylo G). […] In fact, for many cell lines, the data were off scale; designated as <10^−10 M.

HepG2 (hepatocarcinoma) = experiment: In vitro cell culture growth inhibition, HepG2; assay type: cell-based, human
Protocol: (§4) Compound II-3 (NSC-716802) was tested in in vitro cell culture studies.
as §3

[4] = system: KB (head and neck cancer); experiment: In vitro cell culture growth inhibition, KB; assay type: cell-based, human
Protocol: as §4, §3

HepG2 tumor = HepG2 tumor growth inhibition in nude mice; assay type: in vivo; settings: 10 mg/kg ip once daily for 5 days; for tumor growth inhibition: HepG2 tumor-bearing nude mice
Description: FIG. 22 illustrates toxicity and tumor growth inhibition studies using DCB-3503.
Four-week-old male NCR-nude mice were obtained from Taconic, and acclimated to laboratory conditions 1 week before tumor implantation. Human HepG2 tumor xenografts were established by injecting subcutaneously 2×10^6 HepG2 cells. […] Tumor weight was estimated by using the equation: Length of tumor×(wide of tumor/2)^2. (FIG. 1(a))

SK-MEL-2 = experiment: In vitro cell culture growth inhibition, SK-MEL-2; assay type: cell-based, human
Protocol: as §4, §3

KB and HepG2 cells = experiment: Clonogenic assay; assay type: cell-based, human; settings: 24 h exposure, colonies counted after 8 generations
Protocol: FIG. 19 illustrates the effect of DCB-3503 (ZH-152) in clonogenic assays. As depicted, cells were seeded at 5×10^4 per well, then DCB-3503 was added at concentrations ⅓, 1× and 3× the IG50. After a 24 h treatment, the cells were recounted and seeded into a fresh 6 well plate at 200 cells per well. After 8 generations of time the colonies were stained with methylene blue and counted. The cloning efficiency for HepG2 was 10% and for KB was 94%. Both cell lines were exposed to DCB-3503 with the concentration indicated for 24 h. The loss of clonegenic efficiency of cells post drug treatment is shown. […] This supports the previous observation using a different procedure.
They were then grown in the absence of the drug. After eight generations, the colonies were stained and counted.
Cells (5×10^4/well) were plated in 6-well plates. After 24 h, cells were treated with drugs for an additional 24 h. Cells were then trypsinized, counted, and cell viability was determined by trypan blue staining, 200 trypan blue negative cells were plated in triplicate in 6-well plates and grown for eight to ten generation times, then fixed and stained with 0.5% methylene blue in 50% ethanol for 1 h, after plates were washed and dried, the colonies were counted. (FIG. 1, Table 1C).

[5] = Toxicity studies in C57BL/6 mice; assay type: in vivo
Description: FIG. 21 illustrates toxicity studies of DCB-3503 in C57BL/6 mice.

COc1cc2c3c(c4cc(OC)c(OC)cc4c2cc1OC)CN1CCCC1C3 (stereo in doubt) [DCB-3500, (+)-(S)-tylophorine]
effect on cell cycle progression (S phase) (HepG2 cells): not in HepG2 cells
cross-resistance with conventional anticancer drugs [1]: no cross-resistance
activity against NF-κB mediated transcription [2]: potent activity
effect on cell cycle progression (S phase) (KB cells): induce S phase accumulation

COc1cc2c3c(c4cc(OC)c(OC)cc4c2cc1OC)[C@@H](O)[C@@H]1CCCN1C3 [DCB-3501]
antitumor activity in NCI in vitro screen [3]: extraordinary antitumor activity
cross-resistance with conventional anticancer drugs [1]: no cross-resistance

COc1cc2c(cc1OC)-c1cc(OC)c(OC)cc1[C@H]1CN3CCCC3C=C21 (stereo partly drawn) [II-2, (S)-2,3,6,7-Tetramethoxy-8b,9,10,11,12,12a-hexahydro-9a-aza-cyclopenta[b]-triphenylene]
antitumor activity in NCI in vitro screen [3]: active
antitumor activity in NCI in vitro screen ([3]; listed as NSC-717335): potent antitumor activity
potency relative to compound II-3 (times more) (HepG2 (hepatocarcinoma); HepG2 cell growth in culture): 3 to 5
cross-resistance with conventional anticancer drugs [1]: no cross-resistance
activity against NF-κB mediated transcription [2]: potent activity
potency relative to compound II-3 (times more) ([4]; KB cell growth in culture): 3 to 5

COc1cc2c3c(c4cc(OC)c(OC)cc4c2cc1OC)[C@H](O)[C@@H]1CCCN1C3 [II-3, (12S,13S)-2,3,6,7-Tetramethoxy-9,10,11,12,12a,13-hexahydro-9a-aza-cyclopenta[b]triphenylen-13-ol]
antitumor activity in NCI in vitro screen [3]: active
antitumor activity in NCI in vitro screen ([3]; listed as 3503): extraordinary antitumor activity
antitumor activity in NCI in vitro screen ([3]; listed as NSC-716802): potent antitumor activity
weight loss (HepG2 tumor; HepG2 tumor-bearing mice): without significant weight loss
tumor growth inhibition (HepG2 tumor; 10 mg/kg): profound antitumor effect
tumor growth inhibition (HepG2 tumor; listed as DCB-3503, 10 mg/kg): potent inhibitory activity
GI50 (SK-MEL-2): 0.16 µM
effect on cell cycle progression (S phase) (HepG2 cells): inhibition at targets that are responsible for S-phase progression
effect on cell cycle progression (S phase) (HepG2 cells; listed as 3503): not in HepG2 cells
effect on cell cycle progression (S phase) (HepG2 cells; listed as DCB-3503): slows down the cell progress in S-phase
GI50 (HepG2 (hepatocarcinoma); HepG2): 0.06 µM
cross-resistance with conventional anticancer drugs [1]: sensitive
cross-resistance with conventional anticancer drugs ([1]; listed as 3503): no cross-resistance
cross-resistance with conventional anticancer drugs ([1]; listed as ZH-152): still sensitive
loss of clonogenic efficiency, HepG2 versus KB (KB and HepG2 cells): more sensitive
loss of clonogenic efficiency, HepG2 versus KB (KB and HepG2 cells; listed as DCB-3503): HepG2 is much more sensitive than KB cells
acute toxicity [5]: manageable
toxicity (dose causing weight loss) [5]: 10 mg/kg
activity against NF-κB mediated transcription [2]: potent activity
GI50 ([4]; KB): 0.2 µM
effect on cell cycle progression (S phase) (KB cells): inhibition at targets that are responsible for S-phase progression
effect on cell cycle progression (S phase) (KB cells; listed as 3503): induce S phase accumulation
effect on cell cycle progression (S phase) (KB cells; listed as DCB-3503): slows down the cell progress in S-phase

COc1ccc(C2=C[C@]3(O)CCCN3C[C@@H]2c2ccc(OC)c(OC)c2)cc1 [tylo F, tyloindicine F]
LC50 for several melanoma and lung cancer cell lines versus the other cell lines [3]: two orders of magnitude less
ranking by average concentration required for total growth inhibition (TGI) [3]: most potent anticancer agents examined

COc1cc2c(cc1OC)-c1cc(OC)c(OC)cc1[C@H]1CN3CCC[C@@]3(O)C=C21 [tylo G, tyloindicine G]
LC50 for several melanoma and lung cancer cell lines versus the other cell lines [3]: two orders of magnitude less
ranking by average concentration required for total growth inhibition (TGI) [3]: most potent anticancer agents examined

COc1cc2c(cc1OC)[C@H]1CN3CCC[C@H]3C=C1c1ccc(OC)c(O)c1-2 [tylo H, tyloindicine H]
antitumor activity in NCI in vitro screen [3]: active

COc1ccc(C2=CN3CCC[C@H]3C=C2c2cc(O)c(OC)c(OC)c2)cc1OC [tylo I, tyloindicine I]
antitumor activity in NCI in vitro screen [3]: active
